Test results: patent US20220339179A1, “TREATMENT OF HR DEFICIENT CANCER” (THE FRANCIS CRICK INSTITUTE LIMITED, priority 2019, published 2022)

Tests used:
[1] = tested on: PARP1 chromatin association in eHAP SMUG1−/− cells; assay: PARP trapping assay (chromatin fractionation), eHAP SMUG1−/− cells; type: cell-based, human; conditions: MMS 0.01% then olaparib 10 μM 4 h
Protocol: Briefly, 500.000 cells were seeded onto six-well plates, and treated with 350 nM hmdU or 0.01% MMS for 24 hours at which point cells were either left untreated or treated with 10 μM olaparib for 4 h. Cells were fractionated with the Subcellular Protein Fractionation kit for Cultured Cells (ThermoFisher #78840) according to the manufacturer's instructions. Soluble and chromatin fractions were analysed by immunoblotting for PARP1 (Cell Signaling #9542, rabbit) and yH2AX (Millipore, JBW301) antibodies. Incubation with primary antibody was followed by incubation with a horseradish peroxidase-conjugated secondary antibody and chemiluminescent detection of proteins (Amersham Pharmacia, Cardiff, UK).

[2] = tested on: eHAP MUS81−/− cells; assay: Cell viability assay (CellTiter-Glo), eHAP MUS81−/− cells; type: cell-based, human; conditions: single agent
Protocol: (§1) For analysis of cell viability following exposure to olaparib (Selleckchem), deoxyribonucleosides and DNPH1i (N6-benzyladenosine, Carbosynth), cells were seeded in 96-well plates at a density of 100-500 cells per well. Twenty-four hours post-seeding, drug treatments were initiated, and cells were continuously exposed until termination of the experiment. Cell viability was measured using CellTiter-Glo (Promega). The surviving fractions were measured, and drug sensitivity curves were plotted using GraphPad Prism. The following nucleosides were purchased from commercial sources: dU (2′-deoxyuridine), hdU (5-hydroxy-2′-deoxyuridine), hmdU (5-hydroxymethyl-2′-deoxyuridine), mdC (5-methyl-2′-deoxycytidine), hmdC (5-hydroxymethyl-2′-deoxycytidine), cadC (5-carboxy-2-deoxycytidine), fodC (5-formyl-2-deoxycytidine), dl (2′-deoxyinosine), dX (2′-deoxyxanthosine), 8odG (8-oxo-2′-deoxyguanosine), hmU (5 hydroxymethyluridine), hmC (5-hydroxymethyl-cytidine). fodU (5-formyl-2′-deoxyuridine) was synthesized as previously described (Guo et al Org. Biomol. Chem. 11, 1610-1613 (2013).

[3] = tested on: SUM149 BRCA1mut (parental) cells; assay: Cell viability assay, SUM149 BRCA1mut (parental) cells; type: cell-based, human; conditions: 8 days
Protocol: as §1

[4] = tested on: SUM149 WT (revertant) cells; assay: Cell viability assay, SUM149 WT (revertant) cells; type: cell-based, human; conditions: hmdU with DNPH1i 0.5 μM or olaparib, 8 days
Protocol: as §1

[5] = tested on: eHAP MUS81−/−DNPH1−/− cells; assay: Cell viability assay (CellTiter-Glo), eHAP MUS81−/−DNPH1−/− cells; type: cell-based, human; conditions: nucleoside 200 nM, 6 days, vs MUS81 k/o
Protocol: as §1

[6] = tested on: BRCA2/DNPH1 double knock-out cell lines (DLD1); assay: Cell viability assay, DLD1 BRCA2/DNPH1 double knock-out cells; type: cell-based; conditions: absence of a PARP inhibitor; two independent double knock-out lines
Protocol: as §1

[7] = tested on: DLD1 BRCA2−/− cells; assay: Cell viability assay, DLD1 BRCA2−/− cells; type: cell-based; conditions: olaparib 10 nM or hmdU 2 μM, 10 days
Protocol: as §1

[8] = tested on: DLD1 WT, BRCA2 and DNPH1 single knock-out cell lines; assay: Cell viability assay, DLD1 WT and single knock-out cells; type: cell-based; conditions: highest dose tested
Protocol: as §1

[9] = tested on: eHAP WT and DNPH1 k/o cells; assay: Nucleoside composition of genomic DNA by LC-MS; type: cell-based, human; conditions: cells treated with exogenous hmdU; DNPH1 k/o vs WT
Protocol: Cells (5×10^7) were collected and DNA extracted using Gentra Puregene Cell Kit (Qiagen) supplemented with RNAse (Qiagen) and 100 mM tetrahydrouridine (Merck). DNA was digested to mononucleosides by modification of a published protocol (41). Briefly, reactions were carried out in […] buffer containing […] DNA, 50 mM Tris pH 9.0, 20 mM NaCl, 5 mM MgCl2, 1 kU Benzonase, 1 U phosphodiesterase I and 10 U FastAP alkaline phosphatase for 48 hrs at 37° C. The samples were then precipitated with chloroform and labelled standards of deoxyadenosine (dA), deoxycytidine (dC), deoxyguanosine (dG) and deoxythymidine (dT) were spiked for normalization of the signal response from modified deoxynucleosides. Polar phases were analyzed by LC-MS/MS using a using a reverse phase column (100×2.1 mm, 3 μm, Fortis C18, Fortis Technologies) on a Dionex UltiMate LC system coupled to a TSQ Quantiva™ Triple Quadrupole (Thermo Scientific) mass spectrometer with a HESI 11 (heated electrospray ionization) source. The mobile phases consisted of water containing 0.1% acetic acid (mobile phase A) and acetonitrile (mobile phase B). A gradient of 12 min 0-12% B and 1 min 12-60% B was used for the separation of all the modified nucleosides. […]

[10] = tested on: DCTD k/o cell lines; assay: Cell viability, DCTD k/o cell lines; type: cell-based
Protocol: as §1

[11] = tested on: SUM149 BRCA1mut/PARP1−/− cells; assay: Cell viability assay, SUM149 BRCA1mut/PARP1−/− cells; type: cell-based, human; conditions: PARPi-resistant cells; hmdU 2 μM + olaparib; ratio of EC50 values
[12] = tested on: SUM149 BRCA1mut/53BP1−/− cells; assay: Cell viability assay, SUM149 BRCA1mut/53BP1−/− cells; type: cell-based, human; conditions: PARPi-resistant cells; hmdU 2 μM + olaparib; ratio of EC50 values

| SMILES | difference in PARP trapping or DNA damage signaling between WT and SMUG1-deficient cells [1] | effect on viability, agent alone [2] | synthetic lethality of hmdU with DNPH1 inhibition ([3]; DNPH1i 0.5 μM) | expansion of the therapeutic window of olaparib by addition of hmdU ([3]; hmdU 2 μM + olaparib vs olaparib alone, ratio of EC50 values revertant vs BRCA1mut) [fold] | effect on viability, agent alone ([3]; olaparib 250 nM or hmdU 2 μM) | effect of treatment on isogenic WT cells [4] | sensitivity of MUS81/DNPH1 k/o cells to nucleoside treatment (cell viability) [5] | cells killed by hmdU [6] | effect on viability, agent alone [7] | sensitivity to hmdU [8] | increase in genomic hmdU in DNPH1 k/o cells after hmdU treatment [9] [fold] | resistance of DCTD k/o cells to nucleoside treatment [10] | expansion of the therapeutic window of olaparib by hmdU [11] [fold] | expansion of the therapeutic window of olaparib by hmdU [12] [fold] |
| --- | --- | --- | --- | --- | --- | --- | --- | --- | --- | --- | --- | --- | --- | --- |
| COS(C)(=O)=O [MMS, methyl methanesulfonate] | did not observe any difference | – | – | – | – | – | – | – | – | – | – | – | – | – |
| O=c1[nH]c(=O)n([C@H]2C[C@H](O)[C@@H](CO)O2)cc1CO [hmdU, 5-hydroxymethyl-2′-deoxyuridine] | – | no effect on viability | to the same extent as Olaparib alone | 4 | limited effect on viability | unaffected | hypersensitive | over 95% | limited effect on viability | resistant to the highest dose tested | 3 | not | 3 | 3 |
